Key:
[1] = Cardiac sodium channel blocking activity by [14C]guanidinium flux assay; assay type: functional
[2] = molecular target: Sodium channel alpha subunits; brain (Types I, II, III) (Homo sapiens, UniProt P35498+Q99250+Q9NY46); assay: Neuronal sodium channel blocking activity by [14C]guanidinium flux assay; assay type: functional
[3] = molecular target: Glutamate [NMDA] receptor; assay: In vitro displacement of [3H]MK-801 from N-methyl-D-aspartate glutamate receptor; assay type: protein-complex assay
[4] = Half life value of the compound; assay type: ADME; conditions: rat
Rattus norvegicus [5] = assay: Compound was tested in hypoxia -ischemia reduction model for percent reduction in lesion volume at the dose 20 mg/kg (ip)
Rattus norvegicus [6] = assay: Tested in rat middle cerebral artery occlusion model (MACO model) and percent reduction in total lesion volume at the dose of 4.5 mg/kg (combination ip and iv); conditions: route intraperitoneal
[7] = Lowest effective intravenous dose required to observe the behavioral effects (excitation); assay type: functional
Rattus norvegicus [8] = assay: Compound was tested in rotarod motor assay and the effective intravenous dose required to fall from the rod was reported.; assay type: functional
Rattus norvegicus [9] = assay: Compound was tested in hypoxia -ischemia reduction model for percent reduction in lesion volume at the dose 10 mg/kg (ip)
Mus musculus = species on record: Mus musculus; assay: Effective dose required to block the audiogenic seizures.; assay type: functional
Rattus norvegicus [10] = assay: Compound was tested in hypoxia -ischemia reduction model for percent reduction in lesion volume at the dose 4 mg/kg (iv); assay type: functional
Rattus norvegicus [11] = assay: Tested in rat middle cerebral artery occlusion model (MACO model) and percent reduction in total lesion volume at the dose of 1.5 mg/kg (combination ip and iv); assay type: functional; conditions: route intraperitoneal

## CN(C(=N)Nc1cc([S+](C)[O-])ccc1Cl)c1cccc([S+](C)[O-])c1 (centres undefined)
[1]
  IC50: 81 µM
[2]
  IC50: > 25 µM

## CSc1cccc(N(C)C(=N)Nc2cc([S+](C)[O-])ccc2Cl)c1.Cl (centres undefined)
[1]
  IC50: 29.5 µM
[3]
  Ki: 0.834 µM
[2]
  IC50: > 25 µM

## CSc1ccc(Cl)c(NC(=N)N(C)c2cccc([S+](C)[O-])c2)c1 (single isomer, unassigned; (-))
[1]
  IC50: 26 µM
[3]
  Ki: 0.321 µM
[2]
  IC50: > 25 µM

## CSc1ccc(Cl)c(NC(=N)N(C)c2cccc([S+](C)[O-])c2)c1 (stereo in doubt; 10)
[4]
  half-life: 31 min
Rattus norvegicus [5]
  Reduction: 100%
Rattus norvegicus [6]
  Reduction: 32%
[7]
  Dose: 4 mg/kg
[1]
  IC50: 26 µM
[3]
  Ki: 0.179 µM
Rattus norvegicus [8]
  ED50: 8.8 mg/kg
Rattus norvegicus [9]
  Reduction: 60%
[2]
  IC50: 83.1 µM
Mus musculus
  ED50: 12 mg/kg

## CSc1ccc(Cl)c(NC(=N)N(C)c2cccc([S+](C)[O-])c2)c1 (stereo in doubt; 15)
[4]
  T1/2: 32 min
[1]
  IC50: 23.7 µM
[3]
  Ki: 0.233 µM
[2]
  IC50: > 25 µM

## CSc1cccc(N(C)C(=N)Nc2cc(SC)ccc2Cl)c1 [CNS-5161]
Rattus norvegicus [10]
  Reduction: 74%
[7]
  Dose: 0.25 mg/kg
[1]
  IC50: 2.25 µM
Rattus norvegicus [11]
  Reduction: 33%
Rattus norvegicus [8]
  ED50: 0.14 mg/kg
[2]
  IC50: 1.75 µM
Mus musculus
  ED50: 0.9 mg/kg

Reference: ChEMBL document CHEMBL1134748, “Identification and characterization of a potential ischemia-selective N-methyl-D-aspartate (NMDA) receptor ion-channel blocker, CNS 5788” (Bioorg Med Chem Lett, 2001)
